According to patent publication US20100261753A1, “METHODS FOR PREVENTING AND/OR TREATING DEGENERATIVE DISORDERS OF THE CENTRAL NERVOUS SYSTEM” (AMICUS THERAPEUTICS, INC., priority 2009, published 2010):
Where “and” joins values, the source holds several entries; their conditions need not be identical. Equal entries are not always repeated. Structures can show the parent of a compound that is named as a salt. Where two headings read alike, the source gives them in different places.

Assays:
[1] = biological target: T1, recombinant human GCase (rhGCase; Cerezyme) (Homo sapiens, UniProt P04062, R534H); assay: In vitro enzyme inhibition assay of rhGCase with 4-MU-β-D-Glc substrate; type: biochemical; details: for Ki: from IC50 by Cheng-Prusoff equation
T1 construct: purchased Genzyme Corp
T1 sequence (P04062 40-536 R534H): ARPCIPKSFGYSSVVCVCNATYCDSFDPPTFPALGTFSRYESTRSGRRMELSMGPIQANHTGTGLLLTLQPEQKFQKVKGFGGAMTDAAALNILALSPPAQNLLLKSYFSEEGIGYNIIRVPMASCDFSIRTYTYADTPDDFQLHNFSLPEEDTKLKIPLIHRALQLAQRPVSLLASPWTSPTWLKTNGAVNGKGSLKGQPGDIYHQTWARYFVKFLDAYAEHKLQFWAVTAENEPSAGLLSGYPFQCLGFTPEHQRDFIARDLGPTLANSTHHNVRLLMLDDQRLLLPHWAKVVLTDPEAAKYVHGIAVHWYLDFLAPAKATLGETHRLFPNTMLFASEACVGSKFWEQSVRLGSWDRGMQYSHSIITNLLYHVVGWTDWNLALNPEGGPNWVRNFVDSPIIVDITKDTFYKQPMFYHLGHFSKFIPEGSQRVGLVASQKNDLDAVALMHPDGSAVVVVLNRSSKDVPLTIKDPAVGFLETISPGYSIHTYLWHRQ
Description: The binding affinity (defined here by Ki binding constant) of GCase for small molecule pharmacological chaperones described in this document were empirically determined using enzyme inhibition assays. In brief, the enzyme inhibition assays used monitored the ability of test compound to bind and prevent the hydrolysis of a fluorogenic substrate in a concentration-dependent manner. Specifically, the enzyme activity of recombinant human GCase (rhGCase; Cerezyme®, Genzyme Corp.) was measured using the 4-methylumbelliferyl-β-D-glucopyranoside (4-MU-β-D-Glc) fluorogenic substrate in the absence or in the presence of varying amounts of each test compound. […] The enzyme inhibition assays were performed at both pH 7.0 (endoplasmic reticulum pH) and at pH 5.2 (lysosomal pH) to gain insight into the binding affinity (i.e., potency) of compounds for GCase in the endoplasmic reticulum and lysososome.
Enzyme (Cerezyme®, a recombinant form of the human enzyme β-glucocerebrosidase) was also diluted in the same buffer “M” at pH 7.0 and pH 5.2. […] Five μl of diluted enzyme was added to 15 μl of the various inhibitor concentrations or buffer “M” alone and incubated at 37° C. for 1 hour with 50 μl of the substrate preparation to assess β-glucosidase activity at pH 7.0 and pH 5.2.

GCase = biological target: T2, GCase (Mus musculus, UniProt P17439); assay: GCase enhancement in tissues of mice after 2-week oral dosing; type: in vivo, mice (C57BL/6); details: for GCase enhancement in brain, spleen, liver and lung: compared to mice administered control or IFG-tartrate; for GCase Increase (-fold): nine doses over 2 weeks
T2 construct: Liver, spleen, lung, and brain tissues were removed; from tissue; host or cells: brain, spleen, liver and lung of wild-type C57BL/6 mice
T2 sequence (P17439 20-515): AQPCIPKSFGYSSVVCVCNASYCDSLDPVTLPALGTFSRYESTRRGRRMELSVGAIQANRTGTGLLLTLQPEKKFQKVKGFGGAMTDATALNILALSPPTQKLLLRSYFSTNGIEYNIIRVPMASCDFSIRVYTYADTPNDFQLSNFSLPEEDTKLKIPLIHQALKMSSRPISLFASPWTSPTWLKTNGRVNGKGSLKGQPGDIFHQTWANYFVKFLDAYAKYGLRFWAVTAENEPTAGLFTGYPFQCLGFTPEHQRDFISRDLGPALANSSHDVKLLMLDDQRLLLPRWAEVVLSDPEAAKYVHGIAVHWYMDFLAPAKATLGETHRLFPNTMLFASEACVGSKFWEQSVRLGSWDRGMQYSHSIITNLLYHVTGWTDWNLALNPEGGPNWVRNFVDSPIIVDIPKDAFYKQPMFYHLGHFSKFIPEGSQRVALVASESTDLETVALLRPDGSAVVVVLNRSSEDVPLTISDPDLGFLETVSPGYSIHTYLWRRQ
Description: The ability of orally administered test compounds (the hydrochloride salt form of Compound A and Compound B) to elevate GCase levels as compared to reference compound, IFG-tartrate, was assessed in mice. […] Seven animals were used per dose. The dosing solutions were prepared in water. Compounds were administered over 2 weeks as follows: week 1, Mon-Fri (On), Sat-Sun (Off); week 2, Mon-Thu (On); necropsy on Friday. Thus, a total of 9 doses (dosing solutions prepared fresh every day) were given to each mouse, with a 24-hour washout between the last dose and necropsy.
Plasma was collected by spinning blood at 2700 g for 10 minutes at 4° C. Liver, spleen, lung, and brain tissues were removed, washed in cold PBS, blotted dry, flash frozen on dry ice, and stored at −80° C. until analysis. GCase levels were measured by homogenizing approximately 50 mg tissue in 500 μl McIlvane (MI) buffer (100 mM sodium citrate, 200 mM sodium phosphate dibasic, 0.25% sodium taurocholate, and 0.1% Triton X-100, pH 5.2) at pH 5.2 for 3-5 seconds on ice with a micro homogenizer. Homogenates were then incubated at room temperature without and with 2.5 mM conduritol-B-epoxide (CBE) for 30 min. Finally, 3.7 mM 4-methylumbeliferryl-β-glucoside (4-MUG) substrate was added and incubated at 37° C. for 60 min. Reactions were stopped by addition of 0.4 M glycine, pH 10.6. Fluorescence was measured on a plate reader for 1 sec/well using 355 nm excitation and 460 nm emission. Total protein was determined in lysates using the MicroBCA kit according to the manufacturer's instructions. A 4-methylumbelliferone (4-MU) standard curve ranging from 1.0 nM to 50 μM was run in parallel for conversion of raw fluorescence data to absolute GCase activity (in the presence and absence of CBE) and expressed as nanomoles of 4-MU released per milligram of protein per hour (nmol/mg protein/hr). GCase levels and protein levels were calculated using Microsoft Excel (Redmond, Wash.) and GraphPad Prism version 4.02.

[2] = pH 7 (endoplasmic reticulum pH), read-out: IC50 pH 7

IC50 ([1]; pH 5.2, average of three independent experiments, Table 4A, read-out: IC50 pH 5.2) [nM] | IC50 ([1]; pH 5.2, average of three independent experiments, Table 4B, read-out: IC50 pH 5.2) [nM] | GCase Increase (-fold) (GCase; brain, 10 mg/kg p.o., Table 4A) | GCase Increase (-fold) (GCase; brain, 100 mg/kg p.o., Table 4A) | GCase Increase (-fold) (GCase; spleen, 10 mg/kg p.o., Table 4B) | GCase Increase (-fold) (GCase; spleen, 100 mg/kg p.o., Table 4B) | Structure (SMILES) | IC50 ([1]; pH 5.2, average of three independent experiments, Table 3A, read-out: IC50 pH 5.2) [nM] | IC50 ([1]; pH 5.2, average of three independent experiments, Table 3B, read-out: IC50 pH 5.2) [nM] | Ki ([1]; pH 5.2, read-out: Ki pH 5.2) [nM] | IC50 [1, 2] | Ki ([1]; pH 7, read-out: Ki pH 7) | GCase enhancement in brain, spleen, liver and lung (GCase)
 |  |  |  |  |  | O[C@@H]1CNCC(CF)[C@H]1O (stereo in doubt) [Compound A, (3R,4R,5R)-5-(fluoromethyl)piperidine-3,4-diol] | 10 ± 1 | 10 ± 1 |  |  |  | 
 |  |  |  |  |  | O[C@@H]1CNCC(CF)[C@H]1O (stereo in doubt) [Compound A-HCl, (3R,4R,5R)-5-(fluoromethyl)piperidine-3,4-diol hydrochloride] |  |  | 6 | 6 nM and 7 nM | 3 nM and 4 nM | statistically significant greater GCase enhancement
73 ± 9 | 73 ± 9 | 1.3 -fold | 3.5 -fold | 1.4 -fold | 2.2 -fold | O[C@@H]1[C@@H](CCl)CNC[C@H]1O [Compound B, (3R,4R,5S)-5-(chloromethyl)piperidine-3,4-diol] |  |  | 384 ± 2.1 | 9.8 ± 0.5 nM | 5.1 ± 0.3 nM | statistically significant greater GCase enhancement
